Type in all cases: functional
Assay [1] concerns Tobacco mosaic virus. Description: Antiviral activity against Tobacco mosaic virus (TMV) inoculated on 100 ug/mL compound smeared Nicotiana tabacum leaves assessed as protective effect against viral infection measured 3 to 4 days post viral infection.
The test system of assay [2] is Tobacco mosaic virus. The assay is described as follows: Antiviral activity against Tobacco mosaic virus (TMV) pre-treated with 100 ug/mL compound for 30 min followed by inoculation on left side of Nicotiana tabacum leaves assessed as virus inactivation effect measured 3 to 4 days post viral infection.
The subject of assay [3] is Tobacco mosaic virus. Description: Antiviral activity against Tobacco mosaic virus (TMV) pre-treated with 500 ug/mL compound for 30 min followed by inoculation on left side of Nicotiana tabacum leaves assessed as virus inactivation effect measured 3 to 4 days post viral infection.
Assay [4] deals with Tobacco mosaic virus. Description: Antiviral activity against Tobacco mosaic virus (TMV) inoculated on whole Nicotiana tabacum leaves followed by smearing with 500 ug/mL compound solution on left side of leaves assessed as viral infection curative effect measured 3 to 4 days post viral infection.
For assay [5], the system named is Tobacco mosaic virus. Description: Antiviral activity against Tobacco mosaic virus (TMV) inoculated on whole Nicotiana tabacum leaves followed by smearing with 100 ug/mL compound solution on left side of leaves assessed as viral infection curative effect measured 3 to 4 days post viral infection.
Assay [6] concerns Tobacco mosaic virus. Description: Antiviral activity against Tobacco mosaic virus (TMV) inoculated on 500 ug/mL compound smeared Nicotiana tabacum leaves assessed as protective effect against viral infection measured 3 to 4 days post viral infection.

This is an account of results in ChEMBL document CHEMBL3044934, “Design, synthesis, and antiviral evaluation of phenanthrene-based tylophorine derivatives as potential antiviral agents” (2010).

Regarding `COc1cc2cc(CN3CCC(O)CC3)c3cc(OC)c(OC)cc3c2cc1OC`, the Activity amounted to 11.3% in assay [1]; 9.3% in assay [2]; 71.1% in assay [3]; 37.4% in assay [4]; 33.7% in assay [5]; 70.8% in assay [6].
With `COc1cc2cc(C(=O)NCCCCCCO)c3cc(OC)c(OC)cc3c2cc1OC`, the Activity is 22.5% in assay [1]; 57.8% in assay [2]; 60.9% in assay [3]; 65% in assay [4]; 49.6% in assay [5]; 41.7% in assay [6].
`COC(=O)[C@@H]1CCCN1Cc1cc2cc(OC)c(OC)cc2c2cc(OC)c(OC)cc12`: the Activity was determined as 38.3% in assay [1]; 54.7% in assay [2]; 80% in assay [3]; 33.7% in assay [4]; 2.9% in assay [5]; 47.1% in assay [6].
On to `COc1cc2cc(CN3CCCCC3CO)c3cc(OC)c(OC)cc3c2cc1OC` (stereo not drawn), for which the Activity is 4.6% in assay [1]; 5.2% in assay [2]; 8.4% in assay [3]; 46.8% in assay [4]; 36.2% in assay [5]; 21.3% in assay [6].
Consider `COc1cc2cc(CN3CCC[C@H]3CO)c3cc(OC)c(OC)cc3c2cc1OC`, for which the Activity is reported as 10.4% in assay [1]; 36.9% in assay [2]; 74.2% in assay [3]; 34.6% in assay [4]; 13.4% in assay [5]; 19.2% in assay [6].
In the case of `COc1cc2cc(CN3CCC[C@H]3C(=O)O)c3cc(OC)c(OC)cc3c2cc1OC`, the Activity in assay [1] was determined as 23.3%; in assay [2], 21.3%; in assay [3], 39.6%; in assay [4], 54.1%; in assay [5], 14.2%; in assay [6], 35.4%.
`COc1cc2c3c(c4cc(OC)c(OC)cc4c2cc1OC)CN1CCC[C@@H]1C3` [TYLOPHORINE]: the Activity turned out to be 37.9% in assay [1]; 56.4% in assay [2]; 62.6% in assay [3]; 65.9% in assay [4]; 57.7% in assay [5]; 53.3% in assay [6].
Take `CNCC(=O)N[C@@H](CO)C(=O)N[C@H]1[C@H](O)[C@@H](O)[C@H](n2ccc(N)nc2=O)O[C@@H]1C(N)=O` [NINGNANMYCIN]: the Activity is listed as 47.5% in assay [1]; 48% in assay [2]; 68.4% in assay [3]; 47.9% in assay [4]; 39% in assay [5]; 48.7% in assay [6].
`COC(=O)C1CCCCN1C(=O)c1cc2cc(OC)c(OC)cc2c2cc(OC)c(OC)cc12` (stereo not drawn): the Activity in assay [1] was 12.5%; in assay [2], 4.4%; in assay [3], 17.3%; in assay [4], 17.9%; in assay [5], 4.9%; in assay [6], 56.3%.
As for `COC(=O)[C@@H]1CCCN1C(=O)c1cc2cc(OC)c(OC)cc2c2cc(OC)c(OC)cc12`, the Activity in assay [1] was determined as 19.2%; in assay [2], 8%; in assay [3], 8.4%; in assay [4], 64.6%; in assay [5], 10.6%; in assay [6] it was 56.7%.
As for `COC(=O)CCCCCNC(=O)c1cc2cc(OC)c(OC)cc2c2cc(OC)c(OC)cc12`, the Activity in assay [1] came out at 14.2%; in assay [2], 5.8%; in assay [3] it was 6.7%; in assay [4] it was 65.9%; in assay [5], 48%; in assay [6], 54.6%.
With `COc1cc2cc(CN3CCCCC3C(=O)O)c3cc(OC)c(OC)cc3c2cc1OC` (stereo not drawn), the Activity was found to be 10% in assay [1]; 38.7% in assay [2]; 68.9% in assay [3]; 45.1% in assay [4]; 28.9% in assay [5]; 12.9% in assay [6].
Regarding `COC(=O)C1CCCCN1Cc1cc2cc(OC)c(OC)cc2c2cc(OC)c(OC)cc12` (stereo not drawn), the Activity in assay [1] amounted to 27.1%; in assay [2], 50.2%; in assay [3], 59.1%; in assay [4], 11.8%; in assay [5] it was 1.2%; in assay [6], 64.6%.
